The test system of series [1] is NCI-H295R. The experiment in a line: Inhibition of estradiol production in human NCI-H295R cells after 48 hrs by HPLC analysis. Format: functional, cell-based.
For series [2], the system named is NCI-H295R. The experiment in a line: Inhibition of testosterone production in human NCI-H295R cells after 48 hrs by HPLC analysis. The class given is functional, cell-based.
The subject of series [3] is testosterone production (relative to human aldosterone synthase). Put plainly: Selectivity ratio of IC50 for testosterone production in human H295R cells to IC50 for human aldosterone synthase. Format: ADME, cell-based. The following applies: read-out: Ratio IC50.
For series [4], the target named is T1, Cytochrome P450 11B2, mitochondrial (Homo sapiens, UniProt P19099).
T1 sequence (P19099 whole entry): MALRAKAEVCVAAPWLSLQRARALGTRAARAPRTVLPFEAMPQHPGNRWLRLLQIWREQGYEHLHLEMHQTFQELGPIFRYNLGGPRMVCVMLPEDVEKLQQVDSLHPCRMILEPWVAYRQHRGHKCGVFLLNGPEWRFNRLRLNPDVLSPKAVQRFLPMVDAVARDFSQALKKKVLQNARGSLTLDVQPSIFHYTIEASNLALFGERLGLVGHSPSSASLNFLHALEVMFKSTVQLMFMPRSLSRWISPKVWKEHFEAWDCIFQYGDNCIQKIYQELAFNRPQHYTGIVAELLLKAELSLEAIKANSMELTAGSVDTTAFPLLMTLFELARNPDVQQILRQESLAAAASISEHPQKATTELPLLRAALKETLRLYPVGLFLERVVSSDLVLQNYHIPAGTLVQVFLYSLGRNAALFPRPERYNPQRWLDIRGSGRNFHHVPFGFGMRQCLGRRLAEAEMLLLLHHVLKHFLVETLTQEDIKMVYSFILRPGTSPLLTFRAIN
Put plainly: Inhibition of human aldosterone synthase transfected in chinese hamster V79 cells after 24 hrs by LC-MS method. The class given is cell-based.

In series [5] the test system is estradiol production (relative to human aldosterone synthase). Put plainly: Selectivity ratio of IC50 for estradiol production in human H295R cells to IC50 for human aldosterone synthase. The class given is ADME, cell-based. The following applies: read-out: Ratio IC50.

For two compounds, IC50 and selectivity ratio results are on record in ChEMBL document CHEMBL2321846, “Aldosterone synthase inhibitors: targeting chronic kidney disease and diabetic nephropathy” (ACS Med Chem Lett, 2013).

Where only a bound is given, the exact number is not on record here.

As for `CC1(C)CC(c2ccc(C#N)cc2F)c2cn[nH]c21` (stereo not given), the IC50 (as a rule, the concentration at which inhibition is half-maximal) in series [1] was 22 µM; in series [2] it was > 30 µM; in series [4] it was 0.007 µM. The selectivity ratio is > 4280 in series [3] and 3140 in series [5].

For `CC1(C)C[C@H](c2ccc(C#N)cc2)c2cn[nH]c21`, the IC50 in series [1] was 13.2 µM; in series [2] it was > 30 µM; in series [4], 0.005 µM. For the same compound, the selectivity ratio is > 6000 in series [3] and 2640 in series [5].
